≈ marks a conversion by molar mass, not a printed value. Like-named read-outs stand apart in the source and are kept apart here.
What was measured:
[1] = test system: LPS (E. coli O111:B4); test: Peptide-LPS binding, BODIPY-TR-cadaverine displacement assay; conditions: 4 μM
Procedure: The binding abilities of the peptides with LPS was analyzed by BODIPY-TR cadaverine (BC, Thermo Fisher Scientific, Waltham, MA, USA)-displacement assay. The probe complex was prepared by mix 5 μg/mL BC with 5 μg/mL LPS (E. coli O111:B4, Sigma-Aldrich, St. Louis, MO, USA) in a 50 mM Tris buffer (pH 7.4) at room temperature for 6 h. Peptides including polymyxin B (PMB) control (1–64 μM) were allowed to interact with LPS–BC mix in a black 96-well plate for 30 min. The relative fluorescence intensity was recorded at an excitation wavelength of 580 nm and emission wavelength of 620 nm using a fluorescence microplate reader (Molecular Devices, San Jose, CA, USA).

[2] = test system: CRAB C0; test: Biofilm assay, crystal violet staining; format: cell-based, carbapenem-resistant A. baumannii; conditions: 16 h
Procedure: Figure 4 Pro9-3 and its analogs have biofilm inhibition properties against CRAB. The antibiofilm activities of peptides (0–32 μM, 16 h) on (A) A. baumannii and (B) CRAB C0 strains were measured by crystal violet staining and the number of attached cells were read at 595 nm. Melittin, meropenem and imipenem were used as a control. Data are shown as the mean ± SEM (n = 3) and are statistically significant at * p < 0.05; *** p < 0.001; ns, not significant (two-way analysis of variance (ANOVA) with Dunnett’s comparison test).
The effects of peptides on biofilm inhibition of A. baumannii and CRAB C0 strains were performed as described previously. […] After treatment, bacterial cells were fixed with methanol (100%, 15 min) followed by crystal violet staining (0.1% (w/v) in 0.25% (v/v) acetic acid for 1 h). The plates were washed with distilled H2O, allowed to dry, and dissolved in ethanol (100% v/v). The color development representing the degree of biofilm was measured at 595 nm.

[3] = test system: CRKP K1; test: MIC, broth dilution; format: cell-based, carbapenem-resistant K. pneumoniae; conditions: read-out: Minimal Inhibitory Concentration (MIC)
Text: (§1) Escherichia coli KCTC 1682 was obtained from the Korean Collection for Type Cultures (KCTC) (Jeongeup-si, Korea), Acinetobacter baumannii KCCM 40203, Pseudomonas aeruginosa KCCM 11328 from the Korea Culture Center of Microorganisms (KCCM) (Seoul, Korea). Klebsiella pneumoniae NCCP 16054 were obtained from the National Culture Collection for Pathogens (NCCP) (Osong, Korea). Additionally, two carbapenem-resistant E. coli (CREC E1 and E2), 11 carbapenem-resistant A. baumannii (CRAB C0–C10) and two carbapenem-resistant K. pneumoniae (CRKP K1 and K2) were isolated from the patients, who presented symptoms and signs of infection at Korea University Anam Hospital (Seoul, Korea) (IRB registration no. 2020AN0157, 4 March 2021). CRAB C0–C10 have the OXA-23 gene with carbapenem-resistance.
(§2) The minimum inhibitory concentrations (MIC) were determined using broth dilution method. Briefly, all the mentioned bacterial strains were grown overnight at 37 °C by Muller–Hinton (MH) media. […] After 16 h incubation, the bacterial growth was read at 600 nm using a SpectraMAX microplate reader (Molecular Devices, San Jose, CA, USA).

[4] = test system: CRKP K2; test: MIC, broth dilution; format: cell-based, carbapenem-resistant K. pneumoniae; conditions: read-out: Minimal Inhibitory Concentration (MIC)
Text: as §1, §2

[5] = test system: CRAB C6; test: MIC, broth dilution; format: cell-based, carbapenem-resistant A. baumannii; conditions: read-out: Minimal Inhibitory Concentration (MIC)
Text: as §1, §2

[6] = test system: CRAB C0; test: MIC, broth dilution; format: cell-based, carbapenem-resistant A. baumannii; conditions: read-out: Minimal Inhibitory Concentration (MIC)
Text: as §1, §2

[7] = test system: CRAB C2; test: MIC, broth dilution; format: cell-based, carbapenem-resistant A. baumannii; conditions: read-out: Minimal Inhibitory Concentration (MIC)
Text: as §1, §2

[8] = test system: CRAB C4; test: MIC, broth dilution; format: cell-based, carbapenem-resistant A. baumannii; conditions: read-out: Minimal Inhibitory Concentration (MIC)
Text: as §1, §2

[9] = test system: CRAB C10; test: MIC, broth dilution; format: cell-based, carbapenem-resistant A. baumannii; conditions: read-out: Minimal Inhibitory Concentration (MIC)
Text: as §1, §2

[10] = test system: CRAB C7; test: MIC, broth dilution; format: cell-based, carbapenem-resistant A. baumannii; conditions: read-out: Minimal Inhibitory Concentration (MIC)
Text: as §1, §2

[11] = test system: CRAB C3; test: MIC, broth dilution; format: cell-based, carbapenem-resistant A. baumannii; conditions: read-out: Minimal Inhibitory Concentration (MIC)
Text: as §1, §2

[12] = test system: CRAB C5; test: MIC, broth dilution; format: cell-based, carbapenem-resistant A. baumannii; conditions: read-out: Minimal Inhibitory Concentration (MIC)
Text: as §1, §2

[13] = test system: CRAB C9; test: MIC, broth dilution; format: cell-based, carbapenem-resistant A. baumannii; conditions: read-out: Minimal Inhibitory Concentration (MIC)
Text: as §1, §2

[14] = test system: P. aeruginosa; test: MIC, broth dilution; format: cell-based, Pseudomonas aeruginosa KCCM 11328; conditions: Pseudomonas aeruginosa, 16 h, MH media, read-out: Minimal Inhibitory Concentration (MIC)
Text: as §1, §2

[15] = test system: A. baumannii; test: MIC, broth dilution; format: cell-based, Acinetobacter baumannii KCCM 40203; conditions: 16 h, MH media, read-out: Minimal Inhibitory Concentration (MIC)
Text: as §1, §2

[16] = test system: CRAB C1; test: microbe, parasite or virus in culture; conditions: for MIC: Acinetobacter baumannii, read-out: Minimal Inhibitory Concentration (MIC)
Text: as §1, §2

[17] = test system: CRAB C8; test: microbe, parasite or virus in culture; conditions: for MIC: Acinetobacter baumannii, read-out: Minimal Inhibitory Concentration (MIC)
Text: as §1, §2

[18] = test system: K. pneumoniae; test: microbe, parasite or virus in culture; conditions: 16 h; for MIC: Klebsiella pneumoniae, read-out: Minimal Inhibitory Concentration (MIC)
Text: as §1, §2

[19] = test system: E. coli; test: MIC, broth dilution; format: cell-based, Escherichia coli KCTC 1682; conditions: Escherichia coli, 16 h, read-out: Minimal Inhibitory Concentration (MIC)
Text: as §1, §2

[20] = test system: standard Gram-negative bacteria and carbapenem-resistant Gram-negative bacteria; test: Mean MIC over all bacterial strains (GM) and selective index; format: cell-based; conditions: read-out: GM (geometric mean of MIC values of all bacterial strains)
Procedure: as §2

[21] = test system: CREC E2; test: MIC, broth dilution; format: cell-based, carbapenem-resistant E. coli; conditions: read-out: Minimal Inhibitory Concentration (MIC)
Text: as §1, §2

[22] = test system: CREC E1; test: MIC, broth dilution; format: cell-based, carbapenem-resistant E. coli; conditions: read-out: Minimal Inhibitory Concentration (MIC)
Text: as §1, §2

[23] = test system: LPS; test: Limulus amebocyte lysate (LAL) assay, LPS neutralization; format: biochemical; conditions: 1.6 μM
Procedure: Peptide-mediated LPS neutralization was determined using LAL assay (GenScript, Piscataway, NJ, USA). Briefly, peptides 10 μL each (3.1, 6.3, 12.5, 25, and 50 μM) were allowed to interact with LPS (2 ng/mL) for 10 min at 37 °C. LL-37 was used as a control. A LAL enzyme (10 μL) was added to peptide-LPS complex for 10 min followed by addition of a chromogenic substrate (5 min, 37 °C). The reaction was stopped using color substrates and the absorbance was measured at 545 nm against endotoxin standard. The endotoxin levels are expressed as endotoxin units (EU) per milliliter.

[24] = test system: intact CRAB C0; test: Depolarization of intact CRAB C0 (diSC3-5); format: cell-based, carbapenem-resistant A. baumannii; conditions: 4 μM
Procedure: (§3) The depolarization capacity by peptides were measured by using a membrane potential sensitive dye 3,3′-dipropylthiadicarbocyanine iodide (diSC3-5) as previously described using intact CRAB C0. Briefly, CRAB C0 cells were washed using wash buffer (5 mM HEPES, 20 mM glucose, pH 7.4). The cells were resuspended in dilution buffer (5 mM HEPES, 20 mM glucose, 0.1 M KCl, pH 7.4) and then incubated with diSC3-5 dye (1 h). In parallel, spheroplasts of CRAB C0 cells (contains plasma membrane and peptidoglycans) were prepared by damaging outer membrane using osmotic shock, as described previously. Finally, varying concentrations of peptide treated cells, negative control (cells with dye) and positive control (1% triton X-100) were recorded for change in fluorescence using fluorescent spectrophotometer and expressed as percent depolarization.

[25] = test system: CRAB C0 spheroplasts; test: Cytoplasmic membrane depolarization of CRAB C0 spheroplasts (diSC3-5); format: cell-based, carbapenem-resistant A. baumannii; conditions: 4 μM
Procedure: as §3

Molecule | Biofilm inhibition of CRAB C0 [2] | MIC ([3]; Klebsiella pneumoniae) [µM] | MIC ([4]; Klebsiella pneumoniae) [µM] | MIC ([5]; Acinetobacter baumannii) [µM] | MIC ([6]; Acinetobacter baumannii) [µM] | MIC ([7]; Acinetobacter baumannii) [µM] | MIC ([8]; Acinetobacter baumannii) [µM] | MIC ([9]; Acinetobacter baumannii) [µM] | MIC ([10]; Acinetobacter baumannii) [µM] | MIC ([11]; Acinetobacter baumannii) [µM] | MIC ([12]; Acinetobacter baumannii) [µM] | MIC ([13]; Acinetobacter baumannii) [µM] | MIC [14] [µM] | MIC ([15]; Acinetobacter baumannii) [µM] | MIC [16] [µM] | MIC [17] [µM] | MIC [18] [µM] | MIC [20] [µM] | MIC ([21]; Escherichia coli) [µM] | MIC ([22]; Escherichia coli) [µM] | further results
polymyxin B [PMB] | – | – | – | – | – | – | – | – | – | – | – | – | – | – | – | – | – | – | – | – | BC displacement (LPS binding) [1]: 76.6%
C[C@@H](O)[C@H]1C(=O)N2C(C(=O)O)=C(S[C@@H]3CN[C@H](C(=O)N(C)C)C3)[C@H](C)[C@H]12 [Meropenem, reference compound] | unable to inhibit | 64 (≈ 24.5 µg/mL) | > 128 | > 128 | 128 (≈ 49.1 µg/mL) | 128 (≈ 49.1 µg/mL) | > 128 | > 128 | 128 (≈ 49.1 µg/mL) | 128 (≈ 49.1 µg/mL) | > 128 | > 128 | 1 (≈ 0.383 µg/mL) | 0.5 (≈ 0.192 µg/mL) | > 128 | > 128 | < 0.25 | 91.9 (≈ 35.2 µg/mL) | 16 (≈ 6.14 µg/mL) | > 128 | MIC ([19]; E. coli, MH media): 0.25 µM (≈ 0.0959 µg/mL)
LL-37 | – | – | – | – | – | – | – | – | – | – | – | – | – | – | – | – | – | – | – | – | LPS neutralization (LAL assay) [23]: 76.5%
CC[C@H](C)[C@H](NC(=O)CN)C(=O)NCC(=O)N[C@@H](C)C(=O)N[C@H](C(=O)N[C@@H](CC(C)C)C(=O)N[C@@H](CCCCN)C(=O)N[C@H](C(=O)N[C@@H](CC(C)C)C(=O)N[C@H](C(=O)N[C@H](C(=O)NCC(=O)N[C@@H](CC(C)C)C(=O)N1CCC[C@H]1C(=O)N[C@@H](C)C(=O)N[C@@H](CC(C)C)C(=O)N[C@H](C(=O)N[C@@H](CO)C(=O)N[C@@H](Cc1c[nH]c2ccccc12)C(=O)N[C@H](C(=O)N[C@@H](CCCCN)C(=O)N[C@@H](CCCNC(=N)N)C(=O)N[C@@H](CCCCN)C(=O)N[C@@H](CCCNC(=N)N)C(=O)N[C@@H](CCC(N)=O)C(=O)N[C@@H](CCC(N)=O)C(N)=O)[C@@H](C)CC)[C@@H](C)CC)[C@@H](C)O)[C@@H](C)O)C(C)C)C(C)C [Melittin, reference compound] | – | – | – | – | – | – | – | – | – | – | – | – | – | – | – | – | – | – | – | – | MIC [3]: 64 µM (≈ 182 µg/mL); MIC [4]: 64 µM (≈ 182 µg/mL); MIC [5]: 4 µM (≈ 11.4 µg/mL); MIC [6]: 4 µM (≈ 11.4 µg/mL); MIC [7]: 4 µM (≈ 11.4 µg/mL); MIC [8]: 4 µM (≈ 11.4 µg/mL); MIC [9]: 4 µM (≈ 11.4 µg/mL); MIC [10]: 4 µM (≈ 11.4 µg/mL); MIC [11]: 4 µM (≈ 11.4 µg/mL); MIC [12]: 4 µM (≈ 11.4 µg/mL); MIC [13]: 4 µM (≈ 11.4 µg/mL); Depolarization of intact CRAB (diSC3-5) [24]: 75.6%; MIC [15]: 4 µM (≈ 11.4 µg/mL); Minimal Inhibitory Concentration (MIC) ([16]; CRAB C1): 4 µM; Minimal Inhibitory Concentration (MIC) ([17]; CRAB C8): 4 µM; Minimal Inhibitory Concentration (MIC) ([18]; K. pneumoniae, MH media): 32 µM; MIC [21]: 8 µM (≈ 22.8 µg/mL); MIC [22]: 8 µM (≈ 22.8 µg/mL); Increase of diSC3-5 fluorescence in CRAB spheroplasts (depolarization) [25]: 67.9%
C[C@@H](O)[C@H]1C(=O)N2C(C(=O)O)=C(SCCN=CN)C[C@H]12 [Imipenem, reference compound] | unable to inhibit | 32 (≈ 9.58 µg/mL) | > 128 | 128 (≈ 38.3 µg/mL) | > 128 | > 128 | 128 (≈ 38.3 µg/mL) | > 128 | 128 (≈ 38.3 µg/mL) | 128 (≈ 38.3 µg/mL) | 128 (≈ 38.3 µg/mL) | > 128 | 1 (≈ 0.299 µg/mL) | 1 (≈ 0.299 µg/mL) | > 128 | > 128 | < 0.25 | 90.3 (≈ 27 µg/mL) | 16 (≈ 4.79 µg/mL) | > 128 | MIC [19]: 0.5 µM (≈ 0.15 µg/mL)

From article PMC8621208, “Antiseptic 9-Meric Peptide with Potency against Carbapenem-Resistant Acinetobacter baumannii Infection” (International Journal of Molecular Sciences, 2021)
